Test results published in patent US20250049747A1, “USE OF HYPERPOLARIZING AGENTS ALONE AND IN COMBINATION WITH OTHER THERAPEUTIC AGENTS FOR TREATING CANCERS INCLUDING GLIOBLASTOMA” (Trustees of Tufts College, priority 2021, published 2025).
Entries after “also recorded” stand apart in the source; their conditions may differ.

Tests used:
[1] = tested on: NG108-15 cells; test: Automated patch-clamp electrophysiology, resting membrane potential; format: cell-based, mouse/rat; settings: NG108-15, immediately after application
Experimental: Electrophysiology. SyncroPatch 384PE platform (Nanion Technologies®) was used to perform the automated patch-clamp experiments. This system provides giga-ohm resistance seals during simultaneous recording in the 384-well plate format. Cells were harvested 48-72 h after seeding 1-2×10^6 cells in T175 culture flasks (Falcon), then cells were rinsed with PBS (5 mL) and treated with 3 mL Accutase ([…] technologies) for 5 min at 37° C., re-suspended in 10 mL of serum-free media and pelleted at 1000 rpm for 3 min at RT. […] The cells were kept until the moment of the experiment in a temperature controlled dedicated reservoir at 10° C. and shaken at 200 rpm as described. The experiments were performed within one hour after the harvesting process. The assays were carried in single-hole chips with resistances between 4-5 MΩ after priming the chip with the following solutions (in mM), physiological extracellular solution (pECS) 10 HEPES, 140 NaCl, 5 Glucose, 4 KCl, 2 CaCl2), 1 MgCl2, 295-305 mOsm pH 7.4 (NaOH). Internal recording solution (in mM) 20 EGTA, 50 KCl, 10 NaCl, 60 KF, 10 HEPES at pH 7.2, and 285 mOsm. 15 μL of the cell suspension (50% v/v pECS/Medium no serum) was added to each well to a final density of 50-80K cells/mL. Cell capture was promoted by holding a negative pressure of −100 mbar for 20 s. After successive hyperpolarization steps from −30 mV to −100 mV enhanced the capture the seal followed by the transient addition of a high Ca2+ extracellular solution (80 mM NaCl, 3 mM KCl, 35 mM CaCl2), 10 mM MgCl2, 10 mM HEPES at pH 7.4 and 298 mOsm. High Ca2+ solution is washed out by successive external exchanges replacing half of the volume of the well each time with the external recording solution. All recording solutions were prepared with ultrapure MilliQ water (18 MD-cm). After the formation of the Giga-seal, a 250 mbar pressure was applied to break the membrane patch. Once in whole-cell configuration, different voltage protocols were applied to dissect different conductances in NG108-15 cells. Signals were recorded in the current-clamp mode “I=0” (passive conditions) where no current was injected, to monitor the membrane potential. The membrane potentials were recorded for seven sweeps of 1 sec, with an inter-sweep time of 10 s. The average membrane potentials of the 7 sweeps were reported.
Electrophysiology of NG108-15 Cells Show Changes in Resting Membrane Potential Induced by Treatment. […] Untreated cells were patched, baseline measurements were taken and then the drugs were added and the changes in the cell Vmem were recorded.

[2] = tested on: NG108-15 cells; test: Growth and FUCCI assays in NG108-15 cells (cell counts, cell cycle, recovery test); settings: for cell proliferation compared to control (words): NG108-15, 6 days of treatment
Experimental: Cells were plated in 96 well plates at a low confluence and drugs were added fresh every other day for 6 days. Some studies removed the drug at 6 days and added media with no drug for an additional 4 days to test for proliferation. Images of the cells were taken every day and a cell profiler pipeline was used to count the cells and determine the ratio of cells in each part of the cell cycle. […] Cell Culture. […] Cells were disassociated with Accutase and passaged when 70% confluent and maintained at 37° C. with 5% C02. Media was changed every two days. […] All drug screens including controls were done using 0.02% DMSO in the high serum Fluorobrite DMEM.
Growth and FUCCI assays. Both cell lines were plated at 5,000 cells per mL into black-walled flat-bottom 96-well plates coated with 1/50 dilution of Matrigel. Images of cells were taken on Day 0 and every subsequent day for 10 days using a Zeiss Axio1 fitted with an on-stage incubator and kept at 37° C. with 5% C02. A 5× objective was used along with filters for YFP, RFP, and CFP and careful calibration of each plate was done to ensure that the same fields of view were imaged each day. Drugs were added after the initial images were taken and then changed every two days until day 6. For recovery experiments, after imaging on day 6, all drugs were removed, and cells were put into imaging media without any added drugs. This media was changed every two days until day 10. Analysis of growth and snap shots of FUCCI reporters over the 6 days or 10 days was done using a CellProfiler [72]pipeline designed by the Broad. The fractional difference in cell number was calculated by dividing the total number of cells each day by the total number of cells from day 0. The ratio of cells in each cell cycle stage every day was determined by counting all the nuclei of one color and dividing it by the total number of nuclei. Blind quality control was done on all the images to make sure that any fibers or image artifacts were not incorrectly counted by the program.

[3] = human, in vivo; cited from earlier work
[4] = tested on: human glioblastoma U87 cells; test: Growth and FUCCI assays in U87 cells (cell counts, cell cycle, recovery test); format: cell-based; settings: for FUCCI cell cycle proportion: U87, day 6
Experimental: U87 (ATCC) cells were cultured under the same conditions as the NG108-15 cells minus the HAT supplement and used at passage 7-10 for experiments.

[5] = tested on: NG108-15 cells; test: Antibody staining, BrdU and senescence assays in NG108-15 cells; format: cell-based, mouse/rat; settings: NG108-15, 6 days
Experimental: Antibody Staining, BrdU and Senescence Assays. NG108-15 cells were plated on PEI and Matrigel coated plates at 15,000 or 30,000 cells/mL, U87 cells at 10,000 cells/mL and grown in imaging media for 6 days with drug treatment. Fresh media was added every 2 days. On day 6, cells were fixed with 4% formaldehyde in PBS for 30 minutes for all antibody staining, except for BrdU which was fixed for 15 minutes, and for the senescence assay which was fixed for 20 min using the Senescence Beta-Galactosidase Staining Kit (9860, CellSignaling) and thereafter stained according to manufacturer's protocol. After fixing, cells were washed twice with PBS, and were permeabilized in PBS with 0.3% Triton-X for 15 min then washed again twice with PBS. The cells for the BrdU assay were additionally treated with 1N HCl for 10 min on ice, followed by a treatment with 2N HCl for 50 min at room temp. Cells were then blocked with standard blocking buffer comprised of TBS containing 10% goat serum, 0.1% BSA, and with 0.05% Tween 20 or without detergent for antibodies against phosphorylated proteins or monoclonal antibodies except for Anti-YAP and Anti-BrdU staining, which were done according to manufacturer's protocol. Primary antibodies were added at the following concentrations: 1:250 anti-S100 beta (GTX129573, Genetex), 1:500 anti-GFAP (AB5804, EMD-Millipore), 1:300 anti-SOX10 (ab155279, Abcam), 1:100 MAP2 (4542, CellSignaling), 1:400 anti-cleaved caspase 3 (9661, CellSignaling), 1:300 anti-Cx43 (STJ2411, St. John's Labratory), 1:800 anti-p27^Kip1 (3698, CellSignaling), 1:150 anti-BrdU (5292, CellSignaling), 1:125 anti-LC3-II (2775, CellSignaling), 8 μg/mL anti-04 (MAB1326, R&D Systems), 1:1000 anti-TH (RPCA-TH, Encor), 1:4000 anti-NSE (RPCA-NSE, Encor), 1:4000 anti-NFM (RPCA-NF-M, Encor), 0.5 μg/mL anti-TujI (801202, Biolegend), 1:400 anti-NF-KB p65 (8242, CellSignaling), 1:125 anti-phospho CREB (05-807, EMD-Millipore), 1:250 anti-vimentin (ab92547, Abcam), 1:125 anti-YAP (14074, CellSignaling). Antibodies were diluted in their respective blocking buffer and incubated overnight at 4° C. The next day, cells were washed with TBS-T or TBS for 3× for 5 min each and secondary antibody was added as follows: 1:1000 donkey anti-mouse 647 (A-31571, Thermo-Fisher) or 1:1000 donkey anti-rabbit 647 (A-31573, Thermo-Fisher). Each were diluted in blocking buffer along with 2.5 μg/mL Hoechst 33342 and incubated for 1 hour at room temperature. Cells were then washed again with TBS-T or TBS for 3× for 5 min each and covered with Gelvatol. Cells were imaged with an EVOS M7000 system, with at least 50% of each well in a 96 well plate imaged and analyzed using a CellProfiler pipeline for measuring integrated intensity, mean intensity, or nuclear to cytoplasmic ratio of mean intensities.

[6] = cited from earlier work

In the case of `Nc1nnc(-c2cccc(Cl)c2Cl)c(N)n1` [Lamotrigine, lamotrigine], the “change in resting membrane potential compared to control” value (shortened to “change in resting membrane potential”) [1] is reported as “significantly hyperpolarized”.
With `CO[C@H]1C[C@@H]2CC[C@@H](C)[C@@](O)(O2)C(=O)C(=O)N2CCCC[C@H]2C(=O)O[C@H]([C@H](C)C[C@@H]2CC[C@@H](O)[C@H](OC)C2)CC(=O)[C@H](C)/C=C(\C)[C@@H](O)[C@@H](OC)C(=O)[C@H](C)C[C@H](C)/C=C/C=C/C=C/1C` [Rapamycin, rapamycin] the “cell proliferation compared to control (words)” value [2] was “very significant decrease in proliferation”, the “FUCCI cell cycle proportion” value ([2]; NG108-15, day 6) was “increase in cells arrested at G1; also recorded: increased the proportion of cells in G1” and the “change in resting membrane potential” value [1] was “significantly hyperpolarized”. The “blood-brain barrier penetrance” value [3] was “cross the blood brain barrier effectively”, the “FUCCI cell cycle proportion” value [4] was “increase in the G1 proportion” and the LC3-II stain [5] was “significant increase”.
In the case of `CCOC(=O)Nc1ccc(NCc2ccc(F)cc2)cc1N` [Retigabine, retigabine], the “change in resting membrane potential” value [1] is given as “significantly hyperpolarized; also recorded: hyperpolarized NG108-15 cells only slightly”, the “plasma protein binding affinity” value [6] is given as “about 80%” and the BrdU incorporation [5] is given as “significant decrease”. For the same compound, the “cleaved caspase 3 staining” value [5] was “decrease the cleaved caspase 3 positive cells significantly”.
For `Cn1nnc2c(C(N)=O)ncn2c1=O` [TMZ, temozolomide], the “cell proliferation compared to control (words)” value [2] was “not significantly effective at reducing proliferation”, the “cell proliferation compared to control (words)” value ([2]; listed as temozolomide) was “not effective” and the “change in resting membrane potential” value [1] was “significantly hyperpolarized”. The “cell proliferation compared to control (words)” value ([4]; U87, 6 days) was “significantly effective”, the “percent reduction in cells compared to control” value ([4]; U87, 6 days of treatment) was 43% and the “FUCCI cell cycle proportion” value [4] was “did not show a large change in proportion of cells”. For the same compound, the “recovery of proliferation after treatment removed” value ([4]; U87, drugs removed at day 6, followed to day 10) was “slight increase in proliferation after treatment was removed”.
